How the values were obtained:
[1] = test system: Mycobacterium tuberculosis Erdman (autoluminescent); assay: total FIC50 (Loewe) at 50% inhibition, three-drug combination (log2); higher = more antagonistic
Method: (§1)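 DiaMOND equipotent three-drug combination dose responses (10 doses, 1.5- or 2-fold spacing, centred on IC90) against autoluminescent M. tuberculosis Erdman in 8 in vitro models. Read-out is OD600, or luminescence for the intracellular and dormancy models, normalised to untreated wells. Hill-fit Einf, AUC25 and GRinf are potency metrics; FIC50 and FIC90 are total Loewe fractional inhibitory concentrations as log2 (negative = synergy).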

[2] = test system: Mycobacterium tuberculosis Erdman (autoluminescent); assay: total FIC90 (Loewe) at 90% inhibition, three-drug combination (log2); higher = more antagonistic
Method: as §1

[3] = test system: Mycobacterium tuberculosis Erdman (autoluminescent); assay: Einf, fitted maximum growth inhibition of three-drug combination (fraction); higher = stronger maximal inhibition
Method: as §1

[4] = test system: Mycobacterium tuberculosis Erdman (autoluminescent); assay: AUC25, normalised area under dose response up to IC25 (three-drug combination) (fraction (0-1)); higher = more potent at low dose
Method: as §1

[5] = test system: Mycobacterium tuberculosis Erdman (autoluminescent); assay: GRinf, maximum normalised growth rate inhibition (three-drug combination) (unitless (-1 to 1)); higher = less effect (negative = killing)
Method: as §1

COc1nc2ccc(Br)cc2cc1[C@@H](c1ccccc1)[C@@](O)(CCN(C)C)c1cccc2ccccc12 [bedaquiline] + CC[C@@H](CO)NCCN[C@@H](CC)CO [ethambutol] + CO[C@H]1/C=C/O[C@@]2(C)Oc3c(C)c(O)c4c(O)c(c(/C=N/N5CCN(C)CC5)c(O)c4c3C2=O)NC(=O)/C(C)=C\C=C\[C@H](C)[C@H](O)[C@@H](C)[C@@H](O)[C@@H](C)[C@H](OC(C)=O)[C@@H]1C [rifampicin]
Details	AUC25, [4]	Einf, [3]	GRinf, [5]	total FIC50, [1]	total FIC90, [2]
in vitro model: acidic pH 5.7, time point: constant (~7 days, model-specific)	0.101	0.925	-0.517	0.255	–
in vitro model: acidic pH 5.7, time point: terminal (~4-5 doublings, model-specific)	0.0469	0.975	-0.16	0.433	-0.353
in vitro model: intracellular J774, time point: constant = terminal	–	0.946	-0.188	–	-2.17

Details	AUC25, [4]	Einf, [3]	GRinf, [5]	total FIC50, [1]	total FIC90, [2]
in vitro model: butyrate, time point: constant (~7 days, model-specific)	0.0854	0.947	-0.116	0.298	–
in vitro model: butyrate, time point: terminal (~4-5 doublings, model-specific)	0.0653	0.977	-0.0944	0.293	-0.34
in vitro model: cholesterol 0.05 mM, time point: constant (~7 days, model-specific)	0.0934	0.696	-0.186	0.99	–
in vitro model: cholesterol 0.05 mM, time point: terminal (~4-5 doublings, model-specific)	0.0802	0.866	-0.177	0.757	–
in vitro model: cholesterol-high 0.2 mM, time point: constant (~7 days, model-specific)	0.0442	0.972	-0.609	0.869	–
in vitro model: cholesterol-high 0.2 mM, time point: terminal (~4-5 doublings, model-specific)	0.0471	0.999	-0.732	0.649	0.577
in vitro model: dormancy (butyrate + nitrate, low O2), time point: constant (~7 days, model-specific)	0.0847	0.848	0.506	0.302	–
in vitro model: dormancy (butyrate + nitrate, low O2), time point: terminal (~4-5 doublings, model-specific)	0.0367	0.985	-0.0366	0.467	-0.773
in vitro model: standard 7H9 glycerol, time point: constant = terminal	0.0718	0.936	-0.0564	0.162	–
in vitro model: valerate, time point: constant (~7 days, model-specific)	0.0696	0.904	-0.043	0.575	–
in vitro model: valerate, time point: terminal (~4-5 doublings, model-specific)	0.0304	0.944	-0.0659	0.707	-0.531

COc1nc2ccc(Br)cc2cc1[C@@H](c1ccccc1)[C@@](O)(CCN(C)C)c1cccc2ccccc12 [bedaquiline] + CC[C@@H](CO)NCCN[C@@H](CC)CO [ethambutol] + COc1c(N2C[C@@H]3CCCN[C@@H]3C2)c(F)cc2c(=O)c(C(=O)O)cn(C3CC3)c12 [moxifloxacin]
Details	AUC25, [4]	Einf, [3]	GRinf, [5]	total FIC50, [1]	total FIC90, [2]
in vitro model: acidic pH 5.7, time point: constant (~7 days, model-specific)	0.0871	0.818	-0.484	0.542	–
in vitro model: acidic pH 5.7, time point: terminal (~4-5 doublings, model-specific)	0.0798	0.968	-0.239	0.896	0.318
in vitro model: intracellular J774, time point: constant = terminal	–	0.951	-0.177	–	-0.597

Details	AUC25, [4]	Einf, [3]	GRinf, [5]	total FIC50, [1]	total FIC90, [2]
in vitro model: butyrate, time point: constant (~7 days, model-specific)	0.0669	0.943	-0.107	0.634	–
in vitro model: butyrate, time point: terminal (~4-5 doublings, model-specific)	0.0565	0.976	-0.091	0.608	0.135
in vitro model: cholesterol 0.05 mM, time point: constant (~7 days, model-specific)	0.0787	0.746	-0.304	0.605	–
in vitro model: cholesterol 0.05 mM, time point: terminal (~4-5 doublings, model-specific)	0.0645	0.902	-0.132	1.36	0.517
in vitro model: cholesterol-high 0.2 mM, time point: constant (~7 days, model-specific)	0.0262	0.947	-0.654	1.13	–
in vitro model: cholesterol-high 0.2 mM, time point: terminal (~4-5 doublings, model-specific)	0.0315	1	-0.729	1.33	1.07
in vitro model: dormancy (butyrate + nitrate, low O2), time point: constant (~7 days, model-specific)	0.14	0.884	0.39	1.02	–
in vitro model: dormancy (butyrate + nitrate, low O2), time point: terminal (~4-5 doublings, model-specific)	0.114	0.987	-0.126	0.343	0.644
in vitro model: standard 7H9 glycerol, time point: constant = terminal	0.0556	0.955	-0.0832	0.482	0.479
in vitro model: valerate, time point: constant (~7 days, model-specific)	0.0922	0.906	-0.0299	0.726	–
in vitro model: valerate, time point: terminal (~4-5 doublings, model-specific)	0.0526	0.939	-0.0195	0.757	0.289

COc1nc2ccc(Br)cc2cc1[C@@H](c1ccccc1)[C@@](O)(CCN(C)C)c1cccc2ccccc12 [bedaquiline] + CC[C@@H](CO)NCCN[C@@H](CC)CO [ethambutol] + NC(=O)c1cnccn1 [pyrazinamide]
Details	AUC25, [4]	Einf, [3]	GRinf, [5]	total FIC50, [1]	total FIC90, [2]
in vitro model: acidic pH 5.7, time point: constant (~7 days, model-specific)	0.0897	0.873	-0.571	-0.0886	–
in vitro model: acidic pH 5.7, time point: terminal (~4-5 doublings, model-specific)	0.0657	0.97	-0.4	0.412	-0.299
in vitro model: intracellular J774, time point: constant = terminal	–	0.975	-0.486	–	-0.0128

Details	AUC25, [4]	Einf, [3]	GRinf, [5]	total FIC50, [1]	total FIC90, [2]
in vitro model: butyrate, time point: constant (~7 days, model-specific)	0.0804	0.958	-0.23	0.369	–
in vitro model: butyrate, time point: terminal (~4-5 doublings, model-specific)	0.0692	0.98	-0.518	0.327	-0.0291
in vitro model: cholesterol 0.05 mM, time point: constant (~7 days, model-specific)	0.0893	0.735	-0.275	–	–
in vitro model: cholesterol 0.05 mM, time point: terminal (~4-5 doublings, model-specific)	0.113	0.942	-0.531	1.2	–
in vitro model: cholesterol-high 0.2 mM, time point: constant (~7 days, model-specific)	0.0376	0.954	-0.425	1.15	–
in vitro model: cholesterol-high 0.2 mM, time point: terminal (~4-5 doublings, model-specific)	0.0549	1	-0.723	1	1.04
in vitro model: dormancy (butyrate + nitrate, low O2), time point: constant (~7 days, model-specific)	0.11	0.818	0.489	0.665	–
in vitro model: dormancy (butyrate + nitrate, low O2), time point: terminal (~4-5 doublings, model-specific)	0.106	0.99	-0.119	0.467	0.729
in vitro model: standard 7H9 glycerol, time point: constant = terminal	0.0685	0.924	0.0247	0.382	–
in vitro model: valerate, time point: constant (~7 days, model-specific)	0.0945	0.901	-0.0908	0.734	–
in vitro model: valerate, time point: terminal (~4-5 doublings, model-specific)	0.0602	0.954	-0.0443	0.806	-0.297

Source: the supplement of paper PMC8617591
